Test results from patent publication US11337970B2, “Inhibitors of indoleamine 2,3-dioxygenase and methods of their use” (BRISTOL-MYERS SQUIBB COMPANY, priority 2016, dated 2022).

biological target: T1, human IDO1 (Homo sapiens, UniProt P14902); experiment: IDO inhibition assay in HEK293 cells stably expressing human IDO1 (kynurenine, Ehrlich reagent); assay type: cell-based; details: 20 hours incubation, absorbance at 490 nm, read-out: IDO1 HEK Human IC50
T1 construct: expressed in transfected cells
T1 sequence (P14902 whole entry): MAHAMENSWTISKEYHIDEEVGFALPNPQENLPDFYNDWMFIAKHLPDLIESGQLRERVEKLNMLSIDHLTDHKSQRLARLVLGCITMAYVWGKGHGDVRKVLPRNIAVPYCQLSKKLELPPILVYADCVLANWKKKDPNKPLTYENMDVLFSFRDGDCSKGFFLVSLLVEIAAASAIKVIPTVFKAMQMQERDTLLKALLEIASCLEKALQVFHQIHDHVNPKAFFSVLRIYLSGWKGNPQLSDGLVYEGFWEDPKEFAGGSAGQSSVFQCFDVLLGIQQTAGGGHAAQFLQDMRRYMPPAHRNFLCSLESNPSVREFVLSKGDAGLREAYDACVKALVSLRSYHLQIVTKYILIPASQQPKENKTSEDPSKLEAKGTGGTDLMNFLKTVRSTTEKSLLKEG
Protocol: HEK293 cells were transfected with a pCDNA-based mammalian expression vector harboring human IDO1 cDNA (NM 002164.2) by electroporation. They were cultured in medium (DMEM with 10% FBS) containing 1 mg/ml G418 for two weeks. Clones of HEK293 cells that stably expressed human IDO1 protein were selected and expanded for IDO inhibition assay.
The human IDO1/HEK293 cells were seeded at 10,000 cells per 50 μL per well with RPMI/phenol red free media contains 10% FBS in a 384-well black wall clear bottom tissue culture plate (Matrix Technologies LLC) 100 nL of certain concentration of compound was then added to each well using ECHO liquid handling systems. The cells were incubated for 20 hours in 37° C. incubator with 5% CO2.
The compound treatments were stopped by adding trichloroacetic acid (Sigma-Aldrich) to a final concentration at 0.2%. The cell plate was further incubated at 50° C. for 30 minute. The equal volume supernatant (20 μL) and 0.2% (w/v) Ehrlich reagent (4-dimethylaminobenzaldehyde, Sigma-Aldrich) in glacial acetic acid were mixed in a new clear bottom 384-well plate. This plate was then incubated at room temperature for 30 minute. The absorbance at 490 nm was measured on Envision plate reader.
Compound IC50 values were calculated using the counts of 500 nM of a reference standard treatment as one hundred percent inhibition, and counts of no compound but DMSO treatment as zero percent inhibition.

IC50 [nM]	SMILES
3.4	CCC(c1nc2ccc(Cl)cc2[nH]1)[C@H]1CC[C@H](Oc2ccnc3ccccc23)CC1 (mixture of isomers) [Example 13, 4-(((trans)-4-(1-(6-chloro-1H-benzo[d]imidazol-2-yl)propyl)cyclohexyl)oxy)quinoline]
40.6	CC[C@H](c1nc2ccc(Cl)cc2[nH]1)[C@H]1CC[C@@H](c2ccnc3ccc(F)cc32)CC1 (single isomer, unassigned) [Example 15-1, 4-(4-(1-(6-chloro-1H-benzo[d]imidazol-2-yl)propyl)cyclohexyl)-6-fluoroquinoline]
110	CC[C@H](c1nc2ccc(Cl)cc2[nH]1)[C@H]1CC[C@@H](c2ccnc3ccc(F)cc32)CC1 (single isomer, unassigned) [Example 15-2, 4-(4-(1-(6-chloro-1H-benzo[d]imidazol-2-yl)propyl)cyclohexyl)-6-fluoroquinoline]
54.1	CC(c1nc2ccc(Cl)cc2[nH]1)C1CCC(c2ccnc3ccccc23)CC1 (single isomer, unassigned) [Example 16-1, (±)-4-(4-(1-(6-chloro-1H-benzo[d]imidazol-2-yl)ethyl)cyclohexyl)quinoline]
1.5	C[C@@H](c1nc2cc3c(cc2[nH]1)OCO3)[C@H]1CC[C@@H](c2ccnc3ccc(F)cc32)CC1 [Example 4, 6-((R)-1-((cis)-4-(6-fluoroquinolin-4-yl)cyclohexyl)ethyl)-5H-[1,3]dioxolo[4′,5′:4,5]benzo[1,2-d]imidazole]
105	C[C@@H](c1nc2cnccc2[nH]1)[C@H]1CC[C@@H](c2ccnc3ccc(F)cc32)CC1 [Example 5, 4-((cis)-4-((R)-1-(1H-imidazo[4,5-c]pyridin-2-yl)ethyl)cyclohexyl)-6-fluoroquinoline]
730	C[C@@H](Nc1nc2ccc(Cl)cc2s1)[C@H]1CC[C@@H](c2ccnc3ccc(F)cc32)CC1 [Example 8, 6-chloro-N—((R)-1-((cis)-4-(6-fluoroquinolin-4-yl)cyclohexyl)ethyl)benzo[d]thiazol-2-amine]
263	COc1ccc2nc(N[C@H](C)[C@H]3CC[C@@H](c4ccnc5ccc(F)cc54)CC3)[nH]c2c1 [Example 9, N-((R)-1-((cis)-4-(6-fluoroquinolin-4-yl)cyclohexyl)ethyl)-6-methoxy-1H-benzo[d]imidazol-2-amine]
194	C[C@@H](Nc1nc2ccccc2s1)[C@H]1CC[C@@H](c2ccnc3ccc(F)cc32)CC1 [Example 10]
139	C[C@@H](Nc1nc2ccccc2[nH]1)[C@H]1CC[C@@H](c2ccnc3ccc(F)cc32)CC1 [Example 12, N-((R)-1-((cis)-4-(6-fluoroquinolin-4-yl)cyclohexyl)ethyl)-1H-benzo[d]imidazol-2-amine]
322	CCC(c1nc2ccc(Cl)cc2[nH]1)[C@H]1CC[C@@H](Oc2ccnc3ccccc23)CC1 (stereo partly drawn) [Example 14, 4-(((cis)-4-(1-(6-chloro-1H-benzo[d]imidazol-2-yl)propyl)cyclohexyl)oxy)quinoline]

biological target: T2, indoleamine 2,3-dioxygenase (IDO) (Homo sapiens, UniProt P14902); experiment: HeLa cell-based indoleamine 2,3-dioxygenase (IDO) assay (kynurenine production); details: HeLa cells, IFNγ 25 ng/mL, 48 hour incubation, absorbance at 480 nm
T2 construct: host or cells: HeLa cells stimulated with IFNγ (25 ng/mL)
T2 sequence (P14902 whole entry): as above
Protocol: Assessment of inhibitor activity in HeLa cell-based indoleamine 2,3-dioxygenase (IDO) assay:
HeLa (ATCC® CCL-2) cells were obtained from the ATCC® and cultured in Dulbecco's Modified Eagle Medium supplemented with 4.5 g/L glucose, […] (#10-013-CV, Corning), 2 mM L-alanyl-L-glutamine dipeptide (#35050-061, Gibco), 100U/mL penicillin, 100 μg/mL streptomycin (#SV30010, HyClone) and 10% fetal bovine serum (#SH30071.03 HyClone). Cells were maintained in a humidified incubator at 37° C. in 5% CO2.
IDO activity was assessed as a function of kynurenine production as follows: HeLa cells were seeded in a 96-well culture plate at a density of 5,000 cells/well and allowed to equilibrate overnight. After 24 hours, the media was aspirated and replaced with media containing IFNγ (#285-IF/CF, R&D Systems) at a final concentration of 25 ng/mL. A serial dilution of each test compound was added to the cells in a total volume of 200 μL of culture medium. After a further 48 hour incubation, 170 μL of supernatant was transferred from each well to a fresh 96-well plate. 12.1 μL of 6.1N trichloroacetic acid (#T0699, Sigma-Aldrich) was added to each well and mixed, followed by incubation at 65° C. for 20 minutes to hydrolyze N-formylkynurenine, the product of indoleamine 2,3-dioxygenase, to kynurenine. The reaction mixture was then centrifuged for 10 mins at 500×g to sediment the precipitate. 100 μL of the supernatant was transferred from each well to afresh 96-well plate. 100 μl of 2% (w/v) p-dimethylaminobenzaldehyde (#15647-7, Sigma-Aldrich) in acetic acid (#A6283, Sigma-Aldrich) was added to each well mixed and incubated at room temperature for 20 mins. Kynurenine concentrations were determined by measuring absorbance at 480 nm and calibrating against an L-kynurenine (#K8625, Sigma-Aldrich) standard curve using a SPECTRAMAX® M2e microplate reader (Molecular Devices). The percentage activity at each inhibitor concentration was determined and IC50 values assessed using nonlinear regression.

IC50 [nM]	SMILES
834	C[C@H]([C@H]1CC[C@@H](c2ccnc3ccc(F)cc32)CC1)n1cnc2ccccc2c1=O [Example 28, 3-((R)-1-((cis)-4-(6-fluoroquinolin-4-yl)cyclohexyl)ethyl)quinazolin-4(3H)-one]
143	C[C@@H](c1nc2ccc(Cl)cc2c(=O)[nH]1)[C@H]1CC[C@@H](c2ccnc3ccc(F)cc32)CC1 [Example 29, 6-chloro-2-((R)-1-((cis)-4-(6-fluoroquinolin-4-yl)cyclohexyl)ethyl)quinazolin-4(3H)-one]
96.6	Cc1ccc2nc([C@H](C)[C@H]3CC[C@@H](c4ccnc5ccc(F)cc54)CC3)cn2n1 [Example 30, 6-fluoro-4-((cis)-4-((R)-1-(6-methylimidazo[1,2-b]pyridazin-2-yl)ethyl)cyclohexyl)quinoline]
607	C[C@@H](c1cn2ncccc2n1)[C@H]1CC[C@@H](c2ccnc3ccc(F)cc32)CC1 [Example 31, 6-fluoro-4-((cis)-4-((R)-1-(imidazo[1,2-b]pyridazin-2-yl)ethyl)cyclohexyl)quinoline]
1000	CC(c1nc2ccc(Cl)cc2[nH]1)C1CCC(c2ccnc3ncccc23)CC1 (stereo not drawn) [Example 35-1]
2.7	C[C@@H](c1nc2cc(F)c(F)cc2[nH]1)[C@H]1CC[C@@H](c2ccnc3ccc(F)cc32)CC1 [Example 40]
3.4	C[C@@H](c1nc2c(F)c(F)ccc2[nH]1)[C@H]1CC[C@@H](c2ccnc3ccc(F)cc32)CC1 [Example 41, 4-((1S,4s)-4-((R)-1-(4,5-difluoro-1H-benzo[d]imidazol-2-yl)ethyl)cyclohexyl)-6-fluoroquinoline]
3.7	C[C@@H](c1nc2cc(Cl)c(F)cc2[nH]1)[C@H]1CC[C@@H](c2ccnc3ccc(F)cc32)CC1 [Example 42]
3.5	C[C@@H](c1nc2c(F)c(F)c(F)c(F)c2[nH]1)[C@H]1CC[C@@H](c2ccnc3ccc(F)cc32)CC1 [Example 43, 6-fluoro-4-((1S,4s)-4-((R)-1-(4,5,6,7-tetrafluoro-1H-benzo[d]imidazol-2-yl)ethyl)cyclohexyl) quinoline]
5.5	C[C@@H](c1nc2cc(Cl)c(Cl)cc2[nH]1)[C@H]1CC[C@@H](c2ccnc3ccc(F)cc32)CC1 [Example 44, 4-((1S,4s)-4-((R)-1-(5,6-dichloro-1H-benzo[d]imidazol-2-yl)ethyl)cyclohexyl)-6-fluoroquinoline]
3.1	C[C@@H](c1nc2cc(C(F)(F)F)ccc2[nH]1)[C@H]1CC[C@@H](c2ccnc3ccc(F)cc32)CC1 [Example 45, 6-fluoro-4-((1S,4s)-4-((R)-1-(5-(trifluoromethyl)-1H-benzo[d]imidazol-2-yl)ethyl)cyclohexyl) quinoline]
12.2	C[C@@H](c1nc2cc(C(F)(F)F)cc(Cl)c2[nH]1)[C@H]1CC[C@@H](c2ccnc3ccc(F)cc32)CC1 [Example 46, 4-((1S,4s)-4-((R)-1-(7-chloro-5-(trifluoromethyl)-1H-benzo[d]imidazol-2-yl)ethyl)cyclohexyl)-6-fluoroquinoline]
45.6	C[C@@H](c1nc2cc(C(F)(F)F)cc(C(F)(F)F)c2[nH]1)[C@H]1CC[C@@H](c2ccnc3ccc(F)cc32)CC1 [Example 47, 4-((1S,4s)-4-((R)-1-(5,7-bis(trifluoromethyl)-1H-benzo[d]imidazol-2-yl)ethyl)cyclohexyl)-6-fluoroquinolme]
10.7	C[C@@H](c1nc2cc(OC(F)(F)F)ccc2[nH]1)[C@H]1CC[C@@H](c2ccnc3ccc(F)cc32)CC1 [Example 48, 6-fluoro-4-((1S,4s)-4-((R)-1-(5-(trifluoromethoxy)-1H-benzo[d]imidazol-2-yl)ethyl)cyclohexyl) quinoline]
13.4	C[C@@H](c1nc2cc(C#N)ccc2[nH]1)[C@H]1CC[C@@H](c2ccnc3ccc(F)cc32)CC1 [Example 49, 2-((R)-1-((1s,4S)-4-(6-fluoroquinolin-4-yl)cyclohexyl)ethyl)-1H-benzo[d]imidazole-5-carbonitrile]
2.1	COC(=O)c1ccc2[nH]c([C@H](C)[C@H]3CC[C@@H](c4ccnc5ccc(F)cc54)CC3)nc2c1 [Example 50, methyl 2-((R)-1-((1s,4S)-4-(6-fluoroquinolin-4-yl)cyclohexyl)ethyl)-1H-benzo[d]imidazole-5-carboxylate]
